From patent US9051248B2, “Methods, compounds, and compositions for delivering 1,3-propanedisulfonic acid” (BHI Limited Partnership, priority 2009, dated 2015)
Where two headings read alike, the source gives them in different places.

Columns and labels:
[1] = PK study in rats (1,3PDS plasma AUC after oral administration of prodrugs); conditions: rat plasma, oral gavage, dose molar equivalent to 100 mg/kg 1,3PDS(2Na)
Procedure: (§4) For 1,3PDS(2Na), the concentration in the dosing formulation was standardized to such a level that the dose would be 100 mg/kg (or 0.4 mmol/kg) for in vivo protocol specified dosing volume in a particular animal species. For a prodrug, the weight of sample in the dosing formulation varied based on molecular weight in such a way that equimolar dose (0.4 mmol/kg) for all the prodrugs would be administered when given same volume of dosing formulation to the animals. The dosing volume used for was 10 mL/kg for rats and monkeys, and 5 mL/kg for ferrets; or the concentration of dosing formulation was 0.04 mmol/mL for rats and monkeys, and 0.08 mmole/mL for ferrets. The vehicles used can either be water, 0.5% Methocel™ in water or 2% benzyl alcohol in corn oil. The dosing solution can either be a solution, a suspension or an emulsion. For different levels of doses, the amounts of the compounds used in the dosing formulation preparation were adjusted accordingly.
(§5) One group of four male Sprague-Dawley rats of age 7-9 weeks (body weight of 200-300 g) were fasted for 15 to 17 h before being dosed through oral gavage administration with the dosing solution/suspension prepared from test compounds according to Example 40 at a dose specified in Table 5 in a concentration adjusted to a dosing volume of 10 ml/kg-body weight. Food was supplied two hours post dose. Blood samples (200 μL blood) were collected into Sarstedt micro tubes (EDTA K3E/0.5 mL) from the jugular vein of each animal (4 animals/group) at pre-dose and at the following time-points of post-dose: 15 min., 30 min., 1 h, 2 h, 4 h, 6 h, 8 h, 12 h, and 24 h. The collected blood samples were kept on ice and then centrifuged at 4° C. at a minimum speed of 3000 rpm (1620G) for 10 min to prepare the plasma samples. The plasma samples were stored at −80° C. until analysis. An aliquot of dosing formulation was also taken prior to the dosing and stored at −20° C. for analysis.
(§6) 1,3PDS was extracted from an aliquot of rat, mouse, ferret or monkey plasma using protein precipitation and then injected into a liquid chromatograph equipped with a tandem mass spectrometry detector. Quantification was done by peak area ratio method. A weighted (1/X^2) linear regression was performed to back calculate the concentration of the analyte.
(§7) For the various pharmacokinetic studies conducted in rats, ferrets and monkeys, plasma (and blood) concentration-time data for the prodrug and 1,3PDS were analyzed by non-compartmental analysis (NCA) using the software program WinNonlin® Professional Version 5.2.1. In order to conduct the NCA, at least 3 measurable concentrations had to be available in a concentration-time profile. The following pharmacokinetic parameters were determined for plasma (or blood) data: Cmax, Tmax, AUC0-Tlast, AUC0-∞, λz, and T1/2. Since the prodrugs and 1,3PDS were administered at equimolar doses, the effect of the prodrugs on the bioavailability of 1,3PDS was assessed by comparing the Cmax and AUC of 1,3PDS after administering a prodrug with that after administering 1,3PDS.

[2] = Water stability (conversion of prodrug to 1,3PDS); assay type: physicochemical; conditions: deionized water; for Conversion to 1,3PDS (%) 1 h / Conversion to 1,3PDS (%) 2 h: 37° C.; for Conversion to 1,3PDS (%) 0 h / Conversion to 1,3PDS (%) 24 h: room temperature; for Conversion to 1,3PDS (%) 0 h: 200 μg/mL
Procedure: (§1) The objective of this test was to determine the stability of the prodrugs in simulated gastric fluid (SGF) and water at 37° C. up to 2 hours and in water at room temperature up to 24 hours.
(§2) Simulated gastric fluid and water samples were incubated in a shaking water bath at 37° C. for up to 2 hours. The compound (prodrug) was added at Time-point 0. At each selected time point (refer to table), sample aliquots were withdrawn and analyzed to determine the concentration of 1,3-propanedisulfonic acid (1,3PDS). The concentrations of 1,3PDS were calculated based on their respective peak area. The % appearance of 1,3PDS was determined by the amounts of compound determined at each time point compared to nominal concentration (100%) of 1,3PDS generated by 100% of the prodrug (equivalent concentration).
A fresh stock solution at approximately 2 mg/mL of the compound was prepared. One stability solution at 200 μg/mL in the SGF was prepared (sample referred to as Tube A). A stability solution at 200 μg/mL in deionized water was prepared (sample referred to as Tube B). Immediately after preparation, each 200 μg/mL solution was diluted in triplicates to 20 μg/mL in deionized water and analyzed using LC-MS/MS method (Time-point 0). Thereafter, the incubation of tubes A and B was continued in the shaking water bath at 37° C. for 1 and 2 hours while one aliquot of tube B was kept at room temperature for 24 hours. At each specific time point of incubation, 3 aliquots (triplicate) of 50 μL were removed, diluted in 450 μL of water and analyzed using LC-MS/MS method. In parallel, 3 reference samples of 1,3PDS at 100, 10 and 1 μg/mL were prepared, diluted in triplicate in water and injected at the beginning and at the end of the batch. These samples were considered as reference samples.
(§3) The concentrations of 1,3PDS were calculated based on response of the reference samples and their respective peak area response. The % appearance of 1,3PDS was determined by the amounts of compound determined at each time point compared to expected nominal concentration (100%) of 1,3PDS generated by 100% of the prodrug (equivalent concentration).

[3] = Simulated gastric fluid (SGF) stability; assay type: in vitro ADME; conditions: SGF pH 1.5 with pepsin, 37° C.
Procedure: as §1, §2
Amounts of 0.2 g of sodium chloride and 0.32 g of pepsin were weighted and transferred into a 100-mL volumetric flask. Approximately 50 mL of deionized water was added and the mixture well mixed. A volume of 700 μL of hydrochloric acid was added, and the volume completed to 100 mL with deionized water. The resulting mixture was transferred in a polypropylene bottle and pH measured (pH=1.5).
A fresh stock solution at approximately 2 mg/mL of the compound was prepared. One stability solution at 200 μg/mL in the SGF was prepared (sample referred to as Tube A). […] Immediately after preparation, each 200 μg/mL solution was diluted in triplicates to 20 μg/mL in deionized water and analyzed using LC-MS/MS method (Time-point 0). […] At each specific time point of incubation, 3 aliquots (triplicate) of 50 μL were removed, diluted in 450 μL of water and analyzed using LC-MS/MS method. […]
as §3

[4] = Human whole blood stability; assay type: in vitro ADME; conditions: fresh human whole blood, 37° C.; for Conversion to 1,3PDS (% by molar ratio) 0 h: about 100 μg/mL
Procedure: The objective of this test was to determine the stability of the prodrugs in fresh human whole blood at different time-points (0, 0.5, 1, 4, 24 hours). Blood samples were incubated in a shaking water bath at 37° C. for up to 24 hours. The compound (prodrug) was added at Time-point 0, and sample aliquots were withdrawn and analyzed at each time point to determine the concentration of 1,3PDS. If possible, the loss of compound was determined by the amounts of compound determined at each time point compared to the amount determined at Time-point 0. To eliminate the conversion due to the matrix, a special Time-point 0 was prepared in pre-extracted blood sample.
Approximately 2.5 mL of whole blood was incubated in a gently shaking water bath at 37° C. for 15 minutes. Two (2) mL of the pre-incubated whole blood were aliquoted in an eppendorf tube. A 100 μL aliquot of blood was removed and 100 μL of the compound Stock Solution was added. The solution was mixed by inversion. This sample was referred to as Tube A. The final concentration of the compound in tube A was approximately at 100 μg/mL. Immediately after mixing, 100 μL of Tube A was aliquotted into 3 different eppendorf tubes. These samples were extracted as described in the “Extraction Procedure” Section. These samples were referred to Time-point 0. Thereafter, the incubation of Tube A was continued in the shaking water bath at 37° C. for 0.5, 1, 4 and 24 hours. At each specific time point of incubation, aliquots (triplicate) of 100 μL were removed and extracted as described in the “Extraction Procedure” Section. To avoid potential further degradation of compound and/or possible degradation products, the aliquot extracts were kept on ice until analysis. After extraction, samples were analyzed using LC-MS/MS method.
A volume of 300 μL of cold-ice acetonitrile was added to a 1.5 mL eppendorf tube and kept on ice until utilization. 100 μL of the sample to be extracted was added and the mix was vortexed (acetonitrile and blood). The sample was centrifuged at 16250×g (13200 rpm on IEC centrifuge with eppendorf rotor) for 5 minutes. A volume of 250 μL of the supernatant was transferred to another tube and evaporated to dryness under a nitrogen stream. The residue was reconstituted with the mobile phase. This sample was then analyzed according to 1,3PDS specific methods.
The concentrations of 1,3PDS were calculated based on the nominal concentration of the calibration standards and their respective peak area ratio. A linear regression using a weight of 1/x^2 is used to derive the concentration of 1,3PDS. The % appearance of 1,3PDS was determined by the amounts of compound determined at each time point compared to nominal concentration (100%) of 1,3PDS generated by 100% of the prodrug (equivalent concentration).

[5] = rat, in vivo, po, 100 mg/kg
Procedure: as §4, §5, §6, §7

[6] = vehicle 2 0.5% Methocel in water

Row | Structure (SMILES) | 1,3PDS AUC0-Tlast [1, 6] | Conversion to 1,3PDS (%) 1 h [2] [%] | Conversion to 1,3PDS (%) 2 h [2] [%] | Conversion to 1,3PDS (%) 0 h [2] [%] | Conversion to 1,3PDS (%) 24 h [2] [%] | Conversion to 1,3PDS (% by molar ratio) 0 h [4] | other results
1 | O=S(O)CCCS(=O)O [P1(2Na)] | BLLQ | – | – | – | – | – | –
2 | COC(=O)c1ccccc1OS(=O)(=O)CCCS(=O)(=O)O [A32(Na)] | – | 0.1 | 0.1 | 0.0 | 0.0 | 0.1 % by molar ratio | Conversion to 1,3PDS (%) 0 h ([3]; 0 h): 0.0%; Conversion to 1,3PDS (%) 1 h ([3]; 1 h): 0.0%; Conversion to 1,3PDS (%) 2 h ([3]; 2 h): 0.0%; Conversion to 1,3PDS (% by molar ratio) 0.5 h [4]: 0.1 % by molar ratio; Conversion to 1,3PDS (% by molar ratio) 1 h [4]: 0.2 % by molar ratio; Conversion to 1,3PDS (% by molar ratio) 4 h [4]: 0.4 % by molar ratio; Conversion to 1,3PDS (% by molar ratio) 24 h [4]: 2.0 % by molar ratio; 1,3PDS AUC0-Tlast ([1]; vehicle 1 water): 1.097 µg·h/mL
3 | CC(C)(C#N)COS(=O)(=O)CCCS(=O)(=O)OCC(C)(C)C#N [Compound B71] | BLLQ | – | – | – | – | – | –
4 | CC(C)(C)C(C#N)OS(=O)(=O)CCCS(=O)(=O)OC(C#N)C(C)(C)C (stereo not drawn) [Compound B84] | – | – | – | – | – | – | 1,3PDS AUC0-Tlast ([5]; male, Sprague-Dawley): 2.953 µg·h/mL
5 | CC(C)(COS(=O)(=O)CCCS(=O)(=O)OCC(C)(C)[N+](=O)[O-])[N+](=O)[O-] [Compound B72] | – | – | – | – | – | – | 1,3PDS AUC0-Tlast [5]: BLLQ
6 | CC(C)(COS(=O)(=O)CCCS(=O)(=O)OCC(C)(C)C(=O)OCc1ccccc1)C(=O)OCc1ccccc1 [Compound B30] | – | 0.0 | 0.0 | 0.0 | 0.0 | BLLQ | –
7 | O=S1(=O)CCCS(=O)(=O)O1 [Compound C1] | – | 57.3 | 63.1 | 50.3 | 61.2 | AULQ | Conversion to 1,3PDS (% by molar ratio) 0.5 h [4]: AULQ; Conversion to 1,3PDS (% by molar ratio) 1 h [4]: AULQ; Conversion to 1,3PDS (% by molar ratio) 4 h [4]: AULQ; Conversion to 1,3PDS (% by molar ratio) 24 h [4]: AULQ
8 | CC(CO)(CO)COS(=O)(=O)CCCS(=O)(=O)O [A68(Na)] | BLLQ | – | – | – | – | – | –
9 | CCOP(=O)(OCC)OCC(C)(C)COS(=O)(=O)CCCS(=O)(=O)[O-].[Na+] [A66(Na)] | BLLQ | – | – | – | – | – | –
